Experimental data published in paper PMC5242521 (PLoS ONE, 2017).
Read-outs that look alike come from different tables or passages of the source.

Experiments:
Assay type in all cases: cell-based
[1] = biological target: T1, BCRP (Homo sapiens, UniProt Q9UNQ0); experiment: BCRP activity: Hoechst 33342 retention in HEK-BCRP cells; conditions: for inhibition at 90 min, 100 μM: human
T1 construct: expressed in transfected cells; host or cells: HEK293
T1 sequence (Q9UNQ0 1-655): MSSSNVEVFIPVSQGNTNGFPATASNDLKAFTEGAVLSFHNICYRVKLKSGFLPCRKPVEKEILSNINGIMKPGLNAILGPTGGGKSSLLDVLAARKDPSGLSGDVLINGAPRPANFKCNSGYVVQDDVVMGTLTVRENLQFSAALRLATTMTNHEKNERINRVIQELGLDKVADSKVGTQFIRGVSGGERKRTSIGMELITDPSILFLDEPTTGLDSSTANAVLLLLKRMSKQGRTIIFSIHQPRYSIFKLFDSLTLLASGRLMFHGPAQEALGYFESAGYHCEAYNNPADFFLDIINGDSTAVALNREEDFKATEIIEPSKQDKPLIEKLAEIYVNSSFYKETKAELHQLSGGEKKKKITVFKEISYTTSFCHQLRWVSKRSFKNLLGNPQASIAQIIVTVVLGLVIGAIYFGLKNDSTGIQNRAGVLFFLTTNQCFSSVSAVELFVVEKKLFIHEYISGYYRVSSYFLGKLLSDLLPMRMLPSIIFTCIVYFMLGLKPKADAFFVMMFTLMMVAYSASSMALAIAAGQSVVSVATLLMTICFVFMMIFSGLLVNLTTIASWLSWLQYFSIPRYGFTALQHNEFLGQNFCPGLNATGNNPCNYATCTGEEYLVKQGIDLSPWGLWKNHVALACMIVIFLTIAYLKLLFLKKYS
Method: For retention assay (used for BCRP activity), HEK-BCRP cells cultured in 48-well plates were first loaded at 37°C with transport assay (200 μL/well) containing 16.2 μM Hoechst 33342 for 30 min. After washing twice in PBS (200 μL/well/washing), cells were reincubated in Hoechst 33342-free transport assay medium (200 μL/well) at 37°C for 90 min in the absence or presence of pyrethroids or of the BCRP reference inhibitor fumitremorgin C used at 10 μM. Cells were next lysed in distilled water (155 μL/well) after washing twice in PBS (200 μL/well/washing). The cell lysate was finally used for determining cellular protein content and intracellular retention of Hoechst 33342 (by spectrofluorimetry: excitation and emission wavelengths were 355 and 460 nm, respectively), as described above.
(§1) The initial tested concentration of pyrethroids was 100 μM.

[2] = biological target: T2, OATP1B1 (Homo sapiens, UniProt Q9Y6L6); experiment: OATP1B1 activity: E3S accumulation in CHO-OATP1B1 cells; conditions: for inhibition at 100 μM: human, pH 7.4
T2 construct: expressed in transfected cells; host or cells: CHO
T2 sequence (Q9Y6L6 1-691): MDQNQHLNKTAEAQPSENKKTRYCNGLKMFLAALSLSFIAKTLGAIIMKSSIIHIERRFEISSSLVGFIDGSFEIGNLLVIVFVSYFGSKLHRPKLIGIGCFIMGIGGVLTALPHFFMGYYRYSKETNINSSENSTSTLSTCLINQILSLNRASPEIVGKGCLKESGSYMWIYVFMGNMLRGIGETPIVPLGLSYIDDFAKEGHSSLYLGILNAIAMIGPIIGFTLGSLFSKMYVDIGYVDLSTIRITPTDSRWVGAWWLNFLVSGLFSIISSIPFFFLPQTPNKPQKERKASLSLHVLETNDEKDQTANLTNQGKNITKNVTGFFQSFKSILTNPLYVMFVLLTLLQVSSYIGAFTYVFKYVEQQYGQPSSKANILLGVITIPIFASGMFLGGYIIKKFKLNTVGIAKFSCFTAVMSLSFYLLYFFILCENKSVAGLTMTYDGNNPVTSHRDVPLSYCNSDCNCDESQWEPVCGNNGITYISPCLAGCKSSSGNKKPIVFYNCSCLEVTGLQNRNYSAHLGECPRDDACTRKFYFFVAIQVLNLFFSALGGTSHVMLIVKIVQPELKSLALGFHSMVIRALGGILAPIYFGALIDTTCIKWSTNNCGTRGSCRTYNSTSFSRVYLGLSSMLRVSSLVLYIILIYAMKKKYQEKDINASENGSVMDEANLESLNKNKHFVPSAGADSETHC
Method: as §1

[3] = biological target: T3, OCT1 (Homo sapiens, UniProt O15245); experiment: Dopamine accumulation in OCT1-transfected HEK293 cells
T3 sequence (O15245 1-554): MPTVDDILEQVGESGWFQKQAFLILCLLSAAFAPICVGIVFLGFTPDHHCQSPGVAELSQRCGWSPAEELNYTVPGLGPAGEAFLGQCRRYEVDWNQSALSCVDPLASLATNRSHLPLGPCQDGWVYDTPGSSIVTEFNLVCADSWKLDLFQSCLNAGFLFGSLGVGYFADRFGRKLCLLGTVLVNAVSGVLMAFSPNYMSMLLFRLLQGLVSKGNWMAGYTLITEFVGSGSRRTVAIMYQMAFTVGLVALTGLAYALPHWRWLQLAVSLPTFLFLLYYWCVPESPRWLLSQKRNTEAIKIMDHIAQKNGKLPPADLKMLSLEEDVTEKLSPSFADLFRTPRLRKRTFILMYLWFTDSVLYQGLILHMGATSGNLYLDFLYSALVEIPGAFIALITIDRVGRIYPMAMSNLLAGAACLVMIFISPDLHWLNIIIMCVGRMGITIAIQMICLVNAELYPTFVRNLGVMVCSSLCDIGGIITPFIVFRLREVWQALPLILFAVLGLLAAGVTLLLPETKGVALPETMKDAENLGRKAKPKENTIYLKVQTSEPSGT
Method: HEK-MOCK and HEK-OCT1 cells were incubated with transport assay medium containing 11 nM 3,4-[Ring-2,5,6-^3H]-dopamine, in the absence or presence of the reference OCT1 inhibitor verapamil or of pyrethroids for 5 min at 37°C in the transport assay medium described above. After washing twice with PBS, cells were lysed in distilled water and intracellular accumulation of dopamine was finally measured by scintillation counting.
(A) HEK-OCT1 and HEK-MOCK cells were incubated with 11 nM 3,4-[Ring-2,5,6-^3H]-dopamine in the absence or presence of the reference OCT1 inhibitor verapamil (100 μM) for 5 min at 37°C. Intracellular accumulation of 3,4-[Ring-2,5,6-^3H]-dopamine was then determined by scintillation counting. […] Intracellular accumulation of 3,4-[Ring-2,5,6-^3H]-dopamine was then determined by scintillation counting. Data are expressed as percentages of OCT1-mediated transport of dopamine in control pyrethroid-unexposed cells, determined by subtracting accumulation of dopamine in HEK-MOCK cells from that in HEK-OCT1 cells in the absence of pyrethroids, arbitrarily set at 100% and indicated by a dotted line on the graph.

CC(C)=CC1C(C(=O)OCN2C(=O)C3=C(CCCC3)C2=O)C1(C)C (stereo not shown) [tetramethrin]
IC50 [1]: 72.5 µM | inhibition at 90 min, 100 μM ([1]; pyrethroid 100 μM, HEK-BCRP cells, Hoechst 33342, read-out: inhibition of BCRP activity): 67.1% | IC50 [2]: 5.7 µM | inhibition at 100 μM ([2]; pyrethroid 100 μM, CHO-OATP1B1 cells, E3S, read-out: inhibition of OATP1B1 activity): > 85% | effect on OCT1-mediated dopamine uptake ([3]; pyrethroid 10 μM): failed to significantly alter

C=CCC1=C(C)C(OC(=O)C2C(C=C(C)C)C2(C)C)CC1=O (stereo not shown) [allethrin]
IC50 [1]: 42.5 µM | inhibition at 90 min, 100 μM [1]: 83.9% | IC50 [2]: 16.5 µM | inhibition at 100 μM [2]: > 85% | effect on OCT1-mediated transport of dopamine ([3]; pyrethroid 10, 100 or 300 μM, 11 nM dopamine, 5 min): significantly inhibit
